Patent US20260116910A1, “POLYCYCLIC COMPOUNDS AND METHODS THEREOF” (HEPAITECH (BEIJING) BIOPHARMA TECHNOLOGY CO., LTD., priority 2021, published 2026)
Values joined by “and” are separate entries in the source; they are usually repeats but may differ in a detail not shown here. Equal values may be shown once. Read-outs that look alike come from different tables or passages of the source.

Key:
MRGPRX4 = MRGPRX4 (Homo sapiens, UniProt Q96LA9); assay: MRGPRX4 activation, Fluo-8 Ca2+ FLIPR assay in HEK293T cells stably expressing MRGPRX4; type: cell-based; design: key to MRGPRX4 activation, Average / MRGPRX4 activation, Ave.: fluorescence change dF/F0
Sequence of MRGPRX4 (Q96LA9 whole entry): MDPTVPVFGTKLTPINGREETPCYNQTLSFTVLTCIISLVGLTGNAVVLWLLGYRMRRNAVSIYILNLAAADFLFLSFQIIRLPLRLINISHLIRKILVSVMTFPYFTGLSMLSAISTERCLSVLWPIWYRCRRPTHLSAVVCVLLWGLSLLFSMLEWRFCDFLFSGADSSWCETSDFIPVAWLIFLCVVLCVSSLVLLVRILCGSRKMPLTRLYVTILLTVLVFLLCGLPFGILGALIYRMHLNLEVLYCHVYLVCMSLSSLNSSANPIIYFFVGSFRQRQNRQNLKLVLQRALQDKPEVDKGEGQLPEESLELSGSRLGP
In short: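 Response measured as dF/F0: 30 s baseline, then 150 s after compound addition on FLIPR Tetra, in HHBS after 40-60 min room-temperature loading with 2 μM Fluo-8 AM.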

human FXR (NR1H4) = biological target: T1, human FXR (NR1H4) (Homo sapiens, UniProt Q96RI1); assay: Human FXR (NR1H4) agonist assessment, FXRE-NanoLuc reporter in HEK293T cells; type: cell-based
T1 sequence (Q96RI1 1-476 isoform Q96RI1-1): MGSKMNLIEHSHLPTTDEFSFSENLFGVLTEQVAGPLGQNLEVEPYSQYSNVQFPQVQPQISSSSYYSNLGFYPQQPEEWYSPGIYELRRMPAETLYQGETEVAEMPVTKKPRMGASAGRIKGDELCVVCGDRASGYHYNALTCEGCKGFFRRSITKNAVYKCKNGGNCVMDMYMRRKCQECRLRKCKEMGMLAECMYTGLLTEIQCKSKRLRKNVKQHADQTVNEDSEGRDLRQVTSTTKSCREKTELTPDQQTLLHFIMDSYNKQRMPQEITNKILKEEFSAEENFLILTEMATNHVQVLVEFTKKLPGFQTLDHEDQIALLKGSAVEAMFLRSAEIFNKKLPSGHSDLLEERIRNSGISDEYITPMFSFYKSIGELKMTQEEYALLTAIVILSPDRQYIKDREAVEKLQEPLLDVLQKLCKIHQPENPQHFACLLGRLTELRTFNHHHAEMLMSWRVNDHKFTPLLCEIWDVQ
In short: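 Read-out was NanoLuc luminescence in culture medium, measured 5 min after adding coelenterazine. Cells were HEK293T stably carrying human FXR and an FXRE reporter, exposed to compound for 24 hr at 37 °C. Vehicle was 0.01% DMSO. EC50 was obtained from sigmoid fits of gradient dilutions.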

[1] = MRGPRX4 activation, Ca2+ fluorescence, no activation in tested range reported as III, read-out: Activity (EC50 μM)
[2] = FXR activation, HEK293T FXRE-NanoLuc reporter, 24 hr
[3] = FXR activation, HEK293T FXRE-NanoLuc reporter, 24 hr, read-out: EC50

Row | SMILES | MRGPRX4 activation, fluorescence change (dF/F0), Average (MRGPRX4; Conc. (Log[M]) −4) | MRGPRX4 activation, fluorescence change (dF/F0), Average (MRGPRX4; Conc. (Log[M]) −4.5) | MRGPRX4 activation, fluorescence change (dF/F0), Average (MRGPRX4; Conc. (Log[M]) −5) | MRGPRX4 activation, fluorescence change (dF/F0), Average (MRGPRX4; Conc. (Log[M]) −5.5) | MRGPRX4 activation, fluorescence change (dF/F0), Average (MRGPRX4; Conc. (Log[M]) −6) | MRGPRX4 activation, fluorescence change (dF/F0), Average (MRGPRX4; Conc. (Log[M]) −7) | MRGPRX4 activation, fluorescence change (dF/F0), Average (MRGPRX4; Conc. (Log[M]) −8) | MRGPRX4 activation, fluorescence change (dF/F0), Average (MRGPRX4; Conc. (Log[M]) −9) | EC50 (MRGPRX4; [1]) [µM] | Efficacy (maximum measured induction of NanoLuc, normalized to CDCA set as 100%) (human FXR (NR1H4); [2]) | EC50 (human FXR (NR1H4); [3]) [µM] | MRGPRX4 activation, Average (MRGPRX4; E3-9, Conc. (Log[M]) −4.0) | MRGPRX4 activation, Average (MRGPRX4; E3-9, Conc. (Log[M]) −4.5) | MRGPRX4 activation, Average (MRGPRX4; E3-9, Conc. (Log[M]) −5.0) | MRGPRX4 activation, Average (MRGPRX4; E3-9, Conc. (Log[M]) −5.4) | MRGPRX4 activation, Average (MRGPRX4; E3-9, Conc. (Log[M]) −5.9) | MRGPRX4 activation, Average (MRGPRX4; E3-9, Conc. (Log[M]) −6.4) | MRGPRX4 activation, Average (MRGPRX4; E3-9, Conc. (Log[M]) −6.9) | MRGPRX4 activation, Average (MRGPRX4; E3-9, Conc. (Log[M]) −7.3) | MRGPRX4 activation, Average (MRGPRX4; E3-9, Conc. (Log[M]) −7.8) | other results
1 | C[C@]12CC[C@@H](O)C[C@H]1CC[C@@H]1[C@@H]2C[C@H](O)[C@]2(C)[C@@H](CCCCCC(=O)O)CC[C@@H]12 [RC-3] | 0.225 | 0.233 | 0.182 | 0.026 | −0.007 | −0.027 | −0.008 | −0.013 | < 50 | B (300%<efficacy <=400%) | 1 to 10 | – | – | – | – | – | – | – | – | – | –
2 | CC[C@H]1[C@@H](O)[C@@H]2[C@H](CC[C@]3(C)[C@@H]([C@H](C)CCNC(=O)NS(=O)(=O)C4CCCCC4)CC[C@@H]23)[C@@]2(C)CCCC[C@@H]12 [5-3] | 0.297 | 0.031 | 0.001 | −0.012 | −0.033 | −0.011 | −0.012 | 0.002 | > 100 | C (100%<efficacy <=300%) | 1 to 10 | – | – | – | – | – | – | – | – | – | –
3 | CC[C@H]1[C@@H](O)[C@@H]2[C@H](CC[C@]3(C)[C@@H]([C@H](C)CCNC(=O)NS(=O)(=O)c4ccc5c(c4)OCO5)CC[C@@H]23)[C@@]2(C)CCCC[C@@H]12 [5-6] | 0.077 | 0.033 | 0.010 | 0.017 | 0.013 | 0.010 | – | – | > 100 | C (100%<efficacy <=300%) | < 1 | – | – | – | – | – | – | – | – | – | –
4 | CC[C@H]1[C@@H](O)[C@@H]2[C@H](CC[C@]3(C)[C@@H]([C@H](C)CO)CC[C@@H]23)[C@@]2(C)CCCC[C@@H]12 [compound 73] | 0.098 | 0.042 | −0.031 | −0.031 | −0.020 | −0.023 | −0.023 | −0.014 | > 100 | A (efficacy >400%) | 1 to 10 | – | – | – | – | – | – | – | – | – | –
5 | CC[C@H]1[C@@H](O)[C@H]2[C@@H]3CC[C@](C)([C@H](C)CCNC(=O)NS(=O)(=O)C[C@]45CCC(CC4=O)C5(C)C)[C@H]3CC[C@@H]2[C@@]2(C)CC[C@H](F)C[C@@H]12 [9-5] | – | – | – | – | – | – | – | – | > 100 | – | < 1 | 0.014 | 0.016 | 0.023 | 0.023 | 0.018 | 0.019 | 0.021 | 0.019 | 0.021 | MRGPRX4 activation, Average (MRGPRX4; E3-9, Conc. (Log[M]) −8.3): 0.021; Efficacy (maximum measured induction of NanoLuc, normalized to CDCA set as 100%) (human FXR (NR1H4)): C (key: A: efficacy >400%; B: 300%<efficacy <=400%; C: 100%<efficacy <=300%; D: efficacy <=100%)
6 | [2H]C1CC[C@@]2(C)[C@@H](C1)[C@@H](CC)[C@@H](O)[C@@H]1[C@@H]2CC[C@]2(C)[C@@H]([C@H](C)CCC(=O)O)CC[C@@H]12 (stereo partly drawn) [13-1] | – | – | – | – | – | – | – | – | > 100 | C (100%<efficacy <=300%) | < 1 | 0.104 | −0.009 | 0.013 | 0.013 | 0.018 | 0.015 | 0.018 | 0.013 | 0.010 | MRGPRX4 activation, Average (MRGPRX4; E3-9, Conc. (Log[M]) −8.3): 0.013
7 | C[C@H](CCC(=O)O)[C@H]1CC[C@H]2[C@@H]3CC[C@@H]4CCCC[C@]4(C)[C@H]3CC[C@]12C [compound 17] | 0.036 and 0.042 | – | – | – | – | – | – | – | < 50 | – | 1 to 10 | – | – | – | – | – | – | – | – | – | Efficacy (maximum measured induction of NanoLuc, normalized to CDCA set as 100%) (human FXR (NR1H4)): B (key: A: efficacy >400%; B: 300%<efficacy <=400%; C: 100%<efficacy <=300%; D: efficacy <=100%)
8 | CC[C@H]1[C@@H](O)[C@@H]2[C@H](CC[C@]3(C)[C@@H]([C@H](C)COC(=O)NS(=O)(=O)c4ccc(C(C)(C)CF)cc4)CC[C@@H]23)[C@@]2(C)CCCC[C@@H]12 [18-1] | – | – | – | – | – | – | – | – | > 100 | A (efficacy >400%) | < 1 | 0.168 | 0.003 | 0.008 | 0.019 | 0.018 | – | – | – | – | Activation (%) (MRGPRX4; second E3-8-1, 4.6 nM, n = 1): 3.17%; Activation (%) (MRGPRX4; second E3-8-1, 4.6 nM, n = 2): 2.86%; Activation (%) (MRGPRX4; second E3-8-1, 14 nM, n = 1): 2.86%; Activation (%) (MRGPRX4; second E3-8-1, 14 nM, n = 2): 3.17%; Activation (%) (MRGPRX4; second E3-8-1, 41 nM, n = 1): 2.55%; Activation (%) (MRGPRX4; second E3-8-1, 41 nM, n = 2): 3.48%; Activation (%) (MRGPRX4; second E3-8-1, 123 nM, n = 1): 2.55%; Activation (%) (MRGPRX4; second E3-8-1, 123 nM, n = 2): 3.17%; Activation (%) (MRGPRX4; second E3-8-1, 370 nM, n = 1): 3.17%; Activation (%) (MRGPRX4; second E3-8-1, 370 nM, n = 2): 3.48%; Activation (%) (MRGPRX4; second E3-8-1, 1111 nM, n = 1): 2.86%; Activation (%) (MRGPRX4; second E3-8-1, 1111 nM, n = 2): 2.86%; Activation (%) (MRGPRX4; second E3-8-1, 3333 nM, n = 1): 1.93%; Activation (%) (MRGPRX4; second E3-8-1, 3333 nM, n = 2): 2.55%; Activation (%) (MRGPRX4; second E3-8-1, 10000 nM, n = 1): 2.86%; Activation (%) (MRGPRX4; second E3-8-1, 10000 nM, n = 2): 3.79%; Activation (%) (MRGPRX4; second E3-8-1, 30000 nM, n = 1): 2.24%; Activation (%) (MRGPRX4; second E3-8-1, 30000 nM, n = 2): 2.24%
9 | CC[C@H]1[C@@H](O)[C@@H]2[C@H](CC[C@]3(C)[C@@H]([C@H](C)CCNC(=O)NS(=O)(=O)c4cc(F)cc(F)c4)CC[C@@H]23)[C@@]2(C)CC[C@H](F)C[C@@H]12 [9-3] | – | – | – | – | – | – | – | – | > 100 | B (300%<efficacy <=400%) | < 1 | 0.006 | 0.004 | 0.018 | 0.019 | 0.019 | 0.016 | 0.014 | 0.018 | 0.016 | MRGPRX4 activation, Average (MRGPRX4; E3-9, Conc. (Log[M]) −8.3): 0.016
10 | CC[C@H]1[C@@H](OC(=O)c2cccc(I)c2)[C@H]2[C@@H]3[C@@H](O)C=C([C@H](C)CCC(=O)OC)[C@@]3(C)CC[C@@H]2[C@@]2(C)CCCC[C@@H]12 [3-3] | 0.041 | 0.052 | −0.045 | −0.013 | −0.015 | −0.015 | −0.031 | −0.014 | > 100 | C (100%<efficacy <=300%) | > 10 | – | – | – | – | – | – | – | – | – | –
11 | CC[C@H]1[C@@H](O)[C@@H]2[C@H](CC[C@]3(C)[C@@H]([C@H](C)CCN=C=S)CC[C@@H]23)[C@@]2(C)CCCC[C@@H]12 [7-1] | – | – | – | – | – | – | – | – | – | C (100%<efficacy <=300%) | – | 0.020 | 0.018 | 0.013 | 0.013 | 0.011 | 0.013 | 0.004 | 0.008 | 0.006 | EC50 (MRGPRX4): > 100 µM; MRGPRX4 activation, Average (MRGPRX4; E3-9, Conc. (Log[M]) −8.3): 0.011; EC50 (human FXR (NR1H4)): > 10 µM
